IC50 data for 30 molecules are collected here from patent US6737431B2 (Bristol-Myers Squibb Company, priority 2002, dated 2004).

Where only a bound is given, the exact number is not on record here.

One test deals with T1, melatonin ML1a receptor (Homo sapiens, UniProt P48039).
T1 construct: expressed in transfected cells; membrane homogenates
Put plainly: Melatonergic receptor binding, 2-[125I]-iodomelatonin, ML1a. Conditions: NIH-3T3 membranes, 0.1 nM 2-[125I]-iodomelatonin, 37° C. 1 hour. The protocol: (§1) Melatonergic Receptor Binding Activity
(§2) (a) TME=50 mM Tris buffer containing 12.5 mM MgCl2, and 2 mM EDTA, pH 7.4 at 37° C., with concentrated HCl.
(§3) (b) Wash buffer: 20 mM Tris base containing 2 mM MgCl2, pH 7.4 at room temperature.
(§4) (c) 10^−4 M melatonin (10^−5 M final concentration).
(d) 2-[^125I]-iodomelatonin ML1a, 0.1 nM final concentration.
(§5) 2. Membrane Homogenates: The melatonin ML1a and ML1b receptors cDNA were individually subcloned into pcDNA3 and introduced into NIH-3T3 cells using Lipofectamine. Transformed NIH-3T3 cells resistant to geneticin (G-418) were isolated, and single colonies expressing high levels of 2[^125I]-iodomelatonin binding were isolated. Cells are maintained in DMEM supplemented with 10% calf serum and G-418 (0.5 g/liter). Cells are grown to confluency in T-175 flasks, scraped using Hank's balanced salt solution, and frozen at −80° C. For preparing membrane homogenates, pellets are thawed on ice, and re-suspended in TME buffer in the presence of 10 μg/ml aprotinin and leupeptin, and 100 μM phenylmethylsulfonylfluoride. The cells were then homogenized using a dounce homogenizer, and centrifuged. The resulting pellet was re-suspended with dounce homogenizer in TME (supplemented with the above protease inhibitors) and frozen. On the day of assay, a small aliquot was thawed on ice and re-suspended in the ice cold TME (1:50-1:100 v/v) and held on ice until assayed.
(§6) 3. Incubation: 37° C. for 1 hour. Reaction is terminated by filtration. Filters were washed 3 times.
(§7) 4. References: Reppert, S. M. et al., Neuron, 13, p. 1177-1185 (1994); and Reppert, S. M. et al., Proc. Natl. Acad. Sci. USA, 92, p. 8734-8738 (1995).
(§8) The compounds of the present invention have affinity for receptors of the endogenous pineal hormone, melatonin, as determined in receptor binding assays described above in Tables I to III for the ML1a and ML1b (human) receptors. Melatonin is involved in the regulation of a variety of biological rhythms and exerts its biological effects via interaction with specific receptors. There is evidence that administration of melatonin agonists are of clinical utility in the treatment of various conditions regulated by melatonin activity. Such conditions include depression, jet-lag, work-shift syndrome, sleep disorders, glaucoma, some disorders associated with reproduction, cancer benign prostatic hyperplasia, immune disorders, and neuroendocrine disorders.

For the next test, the target named is T2, melatonin ML1b receptor (Homo sapiens, UniProt P49286).
T2 construct: expressed in transfected cells; membrane homogenates
T2 sequence (P49286 1-362): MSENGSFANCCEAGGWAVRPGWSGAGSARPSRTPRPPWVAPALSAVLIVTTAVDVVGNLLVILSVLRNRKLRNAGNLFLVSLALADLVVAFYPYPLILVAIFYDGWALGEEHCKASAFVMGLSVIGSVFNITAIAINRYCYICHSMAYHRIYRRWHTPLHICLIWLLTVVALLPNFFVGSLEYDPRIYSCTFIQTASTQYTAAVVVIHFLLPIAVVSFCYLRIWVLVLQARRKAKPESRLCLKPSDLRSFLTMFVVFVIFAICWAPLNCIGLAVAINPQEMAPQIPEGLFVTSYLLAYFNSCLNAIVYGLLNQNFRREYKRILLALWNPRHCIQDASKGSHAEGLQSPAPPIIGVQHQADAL
Put plainly: Melatonergic receptor binding, 2-[125I]-iodomelatonin, ML1b. As to conditions: NIH-3T3 membranes, 0.2 nM 2-[125I]-iodomelatonin, 37° C. 1 hour. The protocol:
as §1, §2, §3, §4
(e) 2-[^125I]-iodomelatonin ML1b, 0.2 nM final concentration.
as §5, §6, §7, §8

T1 sequence (P48039 whole entry): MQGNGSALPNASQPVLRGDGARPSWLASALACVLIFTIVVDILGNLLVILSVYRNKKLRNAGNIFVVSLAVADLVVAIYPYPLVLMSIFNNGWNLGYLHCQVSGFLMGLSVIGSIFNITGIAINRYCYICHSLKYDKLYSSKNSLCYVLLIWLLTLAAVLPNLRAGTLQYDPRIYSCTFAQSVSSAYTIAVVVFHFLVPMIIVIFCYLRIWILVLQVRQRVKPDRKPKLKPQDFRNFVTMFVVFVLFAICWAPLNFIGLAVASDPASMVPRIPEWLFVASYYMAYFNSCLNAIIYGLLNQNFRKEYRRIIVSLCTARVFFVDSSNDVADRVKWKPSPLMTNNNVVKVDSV

The term IC50 denotes the point on the concentration scale where inhibition reaches its midpoint. Read a low IC50 as greater potency in that assay. With `CC(=O)NCCCc1cccc2nc(C(C)C)oc12` [Example 34, N-{3-[2-(Methylethyl)benzoxazol-7-yl]propyl}acetamide], the IC50 on melatonin ML1a receptor (Table I) and on melatonin ML1b receptor (Table I) was 10 to 250 nM each time.

Take `CCC(=O)NCCCc1cccc2nc(C(C)C)oc12` [Example 35, N-{3-[2-(Methylethyl)benzoxazol-7-yl]propyl}propanamide]: the IC50 at melatonin ML1a receptor (Table I) and at melatonin ML1b receptor (Table I) was 10 to 250 nM each time.

Turning to `CCCC(=O)NCCCc1cccc2nc(C(C)C)oc12` [Example 36, N-{3-[2-(Methylethyl)benzoxazol-7-yl]propyl}butanamide], the concentration for half-maximal inhibition (IC50) at melatonin ML1a receptor (Table I) and on melatonin ML1b receptor (Table I) was 10 to 250 nM in each case.

As to `CC(C)C(=O)NCCCc1cccc2nc(C(C)C)oc12` [Example 37, 2-Methyl-N-{3-[2-(methylethyl)benzoxazol-7-yl]propyl}propanamide], the 50% inhibitory concentration (IC50) at melatonin ML1a receptor (Table I) and at melatonin ML1b receptor (Table I) was 10 to 250 nM each time.

Consider `CC(C)c1nc2cccc(CCCNC(=O)C3CC3)c2o1` [Example 38, Cyclopropyl-N-{3-[2-(methylethyl)benzoxazol-7-yl]propyl}carboxamide], for which the IC50 at melatonin ML1a receptor (Table I) was 10 to 250 nM; on melatonin ML1b receptor (Table I) it was greater than 250 nM.

For the molecule `CCNC(=O)NCCCc1cccc2nc(C(C)C)oc12` [Example 39, (Ethylamino)-N-{3-[2-(methylethyl)benzoxazol-7-yl]propyl}carboxamide], the values for the concentration for half-maximal inhibition (IC50) at melatonin ML1a receptor (Table I) and on melatonin ML1b receptor (Table I) were greater than 250 nM and 10 to 250 nM, respectively.

Consider `CCc1nc2cc(Br)cc(CCCNC(=O)OC(C)(C)C)c2o1` [Example 40], for which the values for the IC50 on melatonin ML1a receptor (Table II) and at melatonin ML1b receptor (Table II) were 10 to 250 nM and greater than 250 nM, respectively.

On to `C=Cc1ccc2nc(CC)oc2c1CCCNC(=O)OC(C)(C)C` [Example 41, N-t-Butoxycarbonyl 7-(3-aminopropyl)-6-vinyl-2-ethylbenzoxazole], for which the IC50 on melatonin ML1a receptor (Table II) and at melatonin ML1b receptor (Table II) was greater than 250 nM in each case.

As for `CCc1nc2ccc(Br)c(CCCNC(C)=O)c2o1` [Example 42, N-Acetyl-7-(3-aminopropyl)-6-bromo-2-ethylbenzoxazole], the IC50 at melatonin ML1a receptor (Table II) is 10 to 250 nM; at melatonin ML1b receptor (Table II) it was less than 10 nM.

As to `C=Cc1ccc2nc(CC)oc2c1CCCNC(C)=O` [Example 43, N-Acetyl-7-(3-aminopropyl)-6-vinyl-2-ethylbenzoxazole], the IC50 is 10 to 250 nM on melatonin ML1a receptor (Table II) and less than 10 nM at melatonin ML1b receptor (Table II).

In the case of `CCc1nc2ccc(C)c(CCCNC(C)=O)c2o1` [Example 44, N-[3-(2-Ethyl-6-methylbenzoxazol-7-yl)propyl]acetamide], the IC50 on melatonin ML1a receptor (Table II) and on melatonin ML1b receptor (Table II) was 10 to 250 nM in each case.

For the molecule `CCc1nc2ccc(C)c(CCCNC(=O)c3ccccc3)c2o1` [Example 45, N-[3-(2-Ethyl-6-methylbenzoxazol-7-yl)propyl]benzamide], the half-inhibitory concentration (IC50) at melatonin ML1a receptor (Table II) and on melatonin ML1b receptor (Table II) was 10 to 250 nM throughout.

As to `CCc1nc2ccc(C)c(CCCNC(=O)C3CC3)c2o1` [Example 46, Cyclopropyl-N-[3-(2-ethyl-6-methylbenzoxazol-7-yl)propyl]carboxamide], the half-maximal inhibitory concentration (IC50) on melatonin ML1a receptor (Table II) and at melatonin ML1b receptor (Table II) was less than 10 nM in each case.

As for `CCc1nc2ccc(-c3ccc(F)cc3)c(CCCNC(C)=O)c2o1` [Example 47, N-{3-[2-Ethyl-6-(4-fluorophenyl)benzoxazol-7-yl]propyl}acetamide], the half-maximal inhibitory concentration (IC50) on melatonin ML1a receptor (Table II) is 10 to 250 nM; at melatonin ML1b receptor (Table II) it was less than 10 nM.

In the case of `CCc1nc2ccc(-c3ccc(F)cc3)c(CCCNC(=O)c3ccccc3)c2o1` [Example 48, N-{3-[2-Ethyl-6-(4-fluorophenyl)benzoxazol-7-yl]propyl}benzamide], the half-maximal inhibitory concentration (IC50) on melatonin ML1a receptor (Table II) was greater than 250 nM; at melatonin ML1b receptor (Table II), 10 to 250 nM.

For the molecule `CCc1nc2ccc(-c3ccc(F)cc3)c(CCCNC(=O)C3CC3)c2o1` [Example 49, Cyclopropyl-N-{3-[2-ethyl-6-(4-fluorophenyl)benzoxazol-7-yl]propyl}carboxamide], the 50% inhibitory concentration (IC50) on melatonin ML1a receptor (Table II) was 10 to 250 nM; at melatonin ML1b receptor (Table II) it was less than 10 nM.

As to `CCc1nc2ccc(-c3ccc(C(F)(F)F)cc3)c(CCCNC(C)=O)c2o1` [Example 50, N-(3-{2-Ethyl-6-[4-(trifluoromethyl)phenyl]benzoxazol-7-yl}propyl)acetamide], the results for the IC50 on melatonin ML1a receptor (Table II) and at melatonin ML1b receptor (Table II) were greater than 250 nM and 10 to 250 nM, respectively.

On to `CCc1nc2ccc(-c3ccc(C(F)(F)F)cc3)c(CCCNC(=O)C3CC3)c2o1` [Example 51, Cyclopropyl-N-(3-{2-ethyl-6-[4-(trifluoromethyl)phenyl]benzoxazol-7-yl}propyl)carboxamide], for which the IC50 on melatonin ML1a receptor (Table II) is greater than 250 nM; at melatonin ML1b receptor (Table II), 10 to 250 nM.

With `CCc1nc2ccc(-c3ccc(OC)cc3)c(CCCNC(C)=O)c2o1` [Example 52, N-{3-[2-Ethyl-6-(4-methoxyphenyl)benzoxazol-7-yl]propyl}acetamide], the values for the IC50 at melatonin ML1a receptor (Table II) and at melatonin ML1b receptor (Table II) were 10 to 250 nM and less than 10 nM, respectively.

Regarding `CCc1nc2ccc(-c3ccc(OC)cc3)c(CCCNC(=O)c3ccccc3)c2o1` [Example 53, N-{3-[2-Ethyl-6-(4-methoxyphenyl)benzoxazol-7-yl]propyl}benzamide], the half-inhibitory concentration (IC50) on melatonin ML1a receptor (Table II) and on melatonin ML1b receptor (Table II) was greater than 250 nM throughout.

For the molecule `CCc1nc2ccc(-c3ccc(OC)cc3)c(CCCNC(=O)C3CC3)c2o1` [Example 54, Cyclopropyl-N-{3-[2-ethyl-6-(4-methoxyphenyl)benzoxazol-7-yl]propyl}carboxamide], the IC50 was greater than 250 nM at melatonin ML1a receptor (Table II) and 10 to 250 nM on melatonin ML1b receptor (Table II).

On to `CCc1nc2ccc(-c3ccccc3)c(CCCNC(C)=O)c2o1` [Example 55, N-[3-(2-Ethyl-6-phenylbenzoxazol-7-yl)propyl]acetamide], for which the IC50 on melatonin ML1a receptor (Table II) and at melatonin ML1b receptor (Table II) was less than 10 nM each time.

Take `CCc1nc2ccc(-c3ccccc3)c(CCCNC(=O)c3ccccc3)c2o1` [Example 56, N-[3-(2-Ethyl-6-phenylbenzoxazol-7-yl)propyl]benzamide]: the IC50 on melatonin ML1a receptor (Table II) and at melatonin ML1b receptor (Table II) was 10 to 250 nM throughout.

On to `CCc1nc2ccc(-c3ccccc3)c(CCCNC(=O)C3CC3)c2o1` [Example 57, Cyclopropyl-N-[3-(2-ethyl-6-phenylbenzoxazol-7-yl)propyl]carboxamide], for which the values for the IC50 at melatonin ML1a receptor (Table II) and on melatonin ML1b receptor (Table II) were 10 to 250 nM and less than 10 nM, respectively.

With `CCc1nc2cc(-c3ccc(F)cc3)cc(CCCNC(C)=O)c2o1` [Example 58, N-[3-(2-Ethyl-5-(4-fluorophenyl)benzoxazol-7-yl)propyl]acetamide], the IC50 on melatonin ML1a receptor (Table II) and on melatonin ML1b receptor (Table II) was 10 to 250 nM throughout.

For the molecule `CCc1nc2cc(-c3ccc(F)cc3)cc(CCCNC(=O)c3ccccc3)c2o1` [Example 59, N-{3-[2-Ethyl-5-(4-fluorophenyl)benzoxazol-7-yl]propyl}benzamide], the IC50 at melatonin ML1a receptor (Table II) and on melatonin ML1b receptor (Table II) was greater than 250 nM each time.

`CCc1nc2cc(-c3ccc(F)cc3)cc(CCCNC(=O)C3CC3)c2o1` [Example 60, Cyclopropyl-N-{3-[2-ethyl-5-(4-fluorophenyl)benzoxazol-7-yl]propyl}carboxamide]: the IC50 at melatonin ML1a receptor (Table II) and on melatonin ML1b receptor (Table II) was 10 to 250 nM in each case.

Take `CCc1nc2cc(-c3ccc(C(F)(F)F)cc3)cc(CCCNC(=O)c3ccccc3)c2o1` [Example 61, N-(3-{2-Ethyl-5-[4-(trifluoromethyl)phenyl]benzoxazol-7-yl}propyl)benzamide]: the half-maximal inhibitory concentration (IC50) was 10 to 250 nM at melatonin ML1a receptor (Table II) and greater than 250 nM on melatonin ML1b receptor (Table II).

`CCc1nc2cc(-c3ccc(OC)cc3)cc(CCCNC(C)=O)c2o1` [Example 62, N-{3-[2-Ethyl-5-(4-methoxyphenyl)benzoxazol-7-yl]propyl}acetamide]: the IC50 on melatonin ML1a receptor (Table II) and on melatonin ML1b receptor (Table II) was 10 to 250 nM throughout.

Consider `CCc1nc2cc(-c3ccc(OC)cc3)cc(CCCNC(=O)c3ccccc3)c2o1` [Example 63, N-{3-[2-Ethyl-5-(4-methoxyphenyl)benzoxazol-7-yl]propyl}benzamide], for which the half-inhibitory concentration (IC50) at melatonin ML1a receptor (Table II) is 10 to 250 nM; on melatonin ML1b receptor (Table II), greater than 250 nM.
